This is an account of results in patent US20100004159A1, “SUBSTITUTED IMIDAZOLONE DERIVATIVES, PREPARATIONS AND USES” (GENFIT, priority 2006, published 2010).

By melting point is commonly meant the temperature, or range, at which the solid turns liquid. Molecule `CCCCC1=NC(CC)(CC)C(=O)N1Cc1ccc(-c2cccc(OC(C(=O)O)C(C)C)c2)cc1` (stereo not drawn) [Compound 63, 2-butyl-1-[(3′-((1-carboxy-1-(1,1-dimethylmethyl)methyl)oxy)-biphenyl-4-yl)methyl]-4,4-diethyl-1H-imidazol-5(4H)-one] yielded a melting point of 65 °C. The molecule `CCCCC1=NC2(CCCCC2)C(=O)N1Cc1ccc(-c2cc(OC(C)C(=O)O)ccc2F)cc1` (stereo not drawn) [Compound 57, 2-butyl-1-[(3′-((1-carboxy-1-methylmethyl)oxy)-6′-fluoro-biphenyl-4-yl)methyl]-4-spirocyclohexyl-1H-imidazol-5(4H)-one] gave a melting point of 96 °C.

In turn, `CCCCC1=NC(C)(C)C(=O)N1Cc1ccc(C(=O)c2cccc(OC(C)(C)C(=O)O)c2)cc1` [Compound 14, 2-butyl-1-[[4-[(3-((1-carboxyl-1,1-dimethylmethyl)oxy)phenyl)carbonyl]phenyl]methyl]-4,4-dimethyl-1H-imidazol-5(4H)-one] showed a melting point of 167 to 169 °C. With `CCCCC1=NC2(CCCCC2)C(=O)N1Cc1ccc(-c2cccc(OC(C)C(=O)O)c2)c(C)c1` (stereo not drawn) [Compound 70, 2-butyl-1-[(3′-((1-carboxy-1-methylmethyl)oxy)-3-methyl-biphenyl-4-yl)methyl]-4-spirocyclohexyl-1H-imidazol-5(4H)one], the melting point worked out at 81 °C.

The molecule `CCCCC1=NC2(CCCCC2)C(=O)N1Cc1ccc(-c2cc(OC(C)(C)C(=O)O)ccc2Br)cc1` [Compound 22, 1-[(6′-bromo-3′-((1-carboxy-1,1-dimethylmethyl)oxy)biphenyl-4-yl)methyl]-2-butyl-4-spirocyclohexyl-1H-imidazol-5(4H)-one] showed a melting point of 170 to 172 °C. Regarding `CCCCC1=NC2(CCCC2)C(=O)N1Cc1ccc(-c2cc(OC(C)C(=O)O)ccc2CCC)cc1` (stereo not drawn) [Compound 83, 2-butyl-1-[(3′-((1-carboxy-1-methylmethyl)oxy)-6′-propyl-biphenyl-4-yl)methyl]-4-spirocyclopentyl-1H-imidazol-5(4H)-one], the melting point was determined as 76 °C. Next, `CCCCC1=NC2(CCCC2)C(=O)N1Cc1ccc(-c2cc(OC(C(=O)O)C(C)C)ccc2CCC)cc1` (stereo not drawn) [Compound 86, 2-butyl-1-[(3′-((1-carboxy-1-(1,1-dimethylmethyl)methyl)oxy)-6′-propyl-biphenyl-4-yl)methyl]-4-spirocyclopentyl-1H-imidazol-5(4H)-one]: 81 °C. Take `CCCCC1=NC(CC)(CC)C(=O)N1Cc1ccc(-c2cc(OC(C(=O)O)C(C)C)ccc2F)cc1` (stereo not drawn) [Compound 68, 2-butyl-1-[(3′-((1-carboxy-1-(1,1-dimethylmethyl)methyl)oxy)-6′-fluoro-biphenyl-4-yl)methyl]-4,4-diethyl-1H-imidazol-5(4H)one]: the melting point was 65 °C. The result for `CCCCC1=NC2(CCCCC2)C(=O)N1Cc1ccc(-c2cccc(OC3(C(=O)O)CCC3)c2)cc1` [Compound 67, 2-butyl-1-[(3′-((1-carboxy-1-spirocyclobutylmethyl)oxy)biphenyl-4-yl)methyl]-4-spirocyclohexyl-1H-imidazol-5(4H)-one] reads 184 °C; that for `CCCCC1=NC2(CCCCC2)C(=O)N1Cc1ccc(-c2cccc(OCC(=O)O)c2)cc1` [Compound 52, 2-butyl-1-[(3′-((1-carboxymethyl)oxy)biphenyl-4-yl)methyl]-4-spirocyclohexyl-1H-imidazol-5(4H)-one], 82 to 85 °C; that for `CCCCC1=NC2(CCCCC2)C(=O)N1Cc1ccc(-c2cccc(OC(CC)C(=O)O)c2)c(C)c1` (stereo not drawn) [Compound 71, 2-butyl-1-[(3′-((1-carboxy-1-ethylmethyl)oxy)-3-methyl-biphenyl-4-yl)methyl]-4-spirocyclohexyl-1H-imidazol-5(4H)one], 77 °C. For the molecule `CCCCC1=NC2(CCCC2)C(=O)N1Cc1ccc(-c2cccc(OC(CC)c3nnn[nH]3)c2)cc1` (stereo not drawn) [Compound 99, 2-butyl-1-[(3′-((1-(tetrazol-5-yl)-1-ethylmethyl)oxy)-biophenyl-4-yl)methyl]-4-spirocyclopentyl-1H-imidazol-5(4H)-one], the melting point was found to be 76 °C. `CC(C)(Oc1cccc(-c2ccc(CN3C(=O)C4(CCCC4)N=C3C3CC3)cc2)c1)C(=O)O` [Compound 29, 1-[(3′-((1-carboxy-1,1-dimethylmethyl)oxy)biphenyl-4-yl)methyl]-2-cyclopropyl-4-spirocyclopentyl-1H-imidazol-5(4H)-one]: the melting point was in the range of 175 to 177 °C. Next, `CCCCC1=NC2(CCCC2)C(=O)N1Cc1ccc(-c2cc(OC(C)(C)C(=O)O)ccc2CC(C)C)cc1` [Compound 87, 2-butyl-1-[(3∝-((1-carboxy-1,1-dimethylmethyl)oxy)-6′-isobutyl-biphenyl-4-yl)methyl]-4-spirocyclopentyl-1H-imidazol-5(4H )-one]: less than 50 °C; `CC(C)(Oc1cccc(-c2ccc(CN3C(=O)C4(CCCC4)N=C3Cc3ccccc3)cc2)c1)C(=O)O` [Compound 28, 2-benzyl-1-[(3′-((1-carboxy-1,1-dimethylmethyl)oxy)biphenyl-4-yl)methyl]-4-spirocyclopentyl-1H-imidazol-5(4H)-one]: 149 to 153 °C. The result for `CCCCC1=NC2(CCCC2)C(=O)N1Cc1ccc(-c2cc(OC(CC)C(=O)O)ccc2CCC)cc1` (stereo not drawn) [Compound 85, 2-butyl-1-[(3′-((1-carboxy-1-ethylmethyl)oxy)-6′-propyl-biphenyl-4-yl)methyl]-4-spirocyclopentyl-1H-imidazol-5(4H)-one] reads 74 °C; that for `CCCCC1=NC2(CCCC2)C(=O)N1Cc1ccc(-c2ccccc2OC(C)(C)C(=O)O)cc1` [Compound 6, 2-butyl-1-[(2′-((1-carboxy-1,1-dimethylmethyl)oxy)biphenyl-4-yl)methyl]-4-spirocyclopentyl-1H-imidazol-5(4H)-one], 74 to 80 °C.

Turning to `CCCCC1=NC2(CCCC2)C(=O)N1Cc1ccc(-c2cccc(OC(C)(C)C(=O)O)c2)cc1C` [Compound 91], the melting point was found to be 160 °C. Consider `CCCCC1=NC2(CCCC2)C(=O)N1Cc1ccc(-c2cccc(OC(C)(C)C(=O)O)c2)c(OC)c1` [Compound 90], for which the melting point was found to be 157 °C. Turning to `CCCCC1=NC2(CCCC2)C(=O)N1Cc1ccc(Cc2ccc(OC(C)(C)C(=O)O)cc2)cc1` [Compound 31], the melting point is 147 to 149 °C. `CCCC1=NC2(CCCC2)C(=O)N1Cc1ccc(-c2cccc(OC(C)(C)C(=O)O)c2)cc1` [Compound 16, 1-[(3′-((1-carboxy-1,1-dimethylmethyl)oxy)biphenyl-4-yl)methyl]-2-propyl-4-spirocyclopentyl-1H-imidazol-5(4H)-one] came in with a melting point of 134 to 190 °C.
